Reference: the supplement of paper PMC4977894
Structures can show the parent of a compound that is named as a salt. ± gives the standard deviation of the averaged measurements.

What was measured:
[1] = test system: Homo sapiens (human subject panel, olfactory perception); assay: perceived odor familiarity rating (rating 0-100); higher = more familiar
Experimental: (§1)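 Human olfactory psychophysics. 55 healthy subjects (after excluding 6 low performers) sniffed 1 mL of each odorant diluted in paraffin oil (vials, two dilutions per molecule, 20 molecules presented twice). Each subject rated intensity, pleasantness and familiarity on a 0-100 slider, starting at 50 and required to move. Ratings were given only when the subject reported detecting a smell; per-subject ratings are averaged over subjects.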

[2] = test system: Homo sapiens (human subject panel, olfactory perception); assay: perceived odor intensity rating (rating 0-100); higher = stronger perceived smell
Experimental: as §1

[3] = test system: Homo sapiens (human subject panel, olfactory perception); assay: perceived odor pleasantness rating (rating 0-100); higher = more pleasant
Experimental: as §1

[4] = odor dilution in paraffin oil: 1/10
[5] = odor dilution in paraffin oil: 1/1,000
[6] = odor dilution in paraffin oil: 1/100,000
[7] = odor dilution in paraffin oil: 1/10,000,000

| Structure (SMILES) | perceived odor familiarity rating [1, 4] | perceived odor familiarity rating [1, 5] | perceived odor intensity rating [2, 4] | perceived odor intensity rating [2, 5] | perceived odor pleasantness rating [3, 4] | perceived odor pleasantness rating [3, 5] | perceived odor familiarity rating [1, 6] | perceived odor intensity rating [2, 6] | perceived odor pleasantness rating [3, 6] | perceived odor familiarity rating [1, 7] | perceived odor intensity rating [2, 7] | perceived odor pleasantness rating [3, 7] |
| --- | --- | --- | --- | --- | --- | --- | --- | --- | --- | --- | --- | --- |
| CC1(C)CCC[C@]2(C)[C@H]3CCO[C@]3(C)CC[C@@H]12 [Ambrox] | 61 ± 27 | 60.9 ± 28 | 73.6 ± 23 | 50.1 ± 30 | 55.7 ± 27 | 62.8 ± 23 | – | – | – | – | – | – |
| CCCCCOC(=O)CCC [Amyl butyrate] | – | 51.7 ± 32 | – | 59.2 ± 26 | – | 55.8 ± 28 | 32.9 ± 32 | 20.8 ± 25 | 47.7 ± 30 | – | – | – |
| CCCCCOC(=O)CCCCC [Amyl hexanoate] | 39.1 ± 30 | 38.1 ± 30 | 67.3 ± 25 | 28.8 ± 29 | 44.6 ± 28 | 53.8 ± 27 | – | – | – | – | – | – |
| C[C@@]12C=CC[C@H]1[C@@H]1CCC3=CC(=O)CC[C@]3(C)[C@H]1CC2 [Androstadienone] | – | 45.8 ± 34 | – | 63.1 ± 32 | – | 29.2 ± 24 | 31.6 ± 30 | 38.2 ± 35 | 38.6 ± 27 | – | – | – |
| COc1ccc(COC(C)=O)cc1 [Anisyl acetate] | – | 52.8 ± 29 | – | 59.4 ± 26 | – | 69.8 ± 21 | 39.3 ± 30 | 31.7 ± 26 | 48.7 ± 25 | – | – | – |
| N[C@@H](CC(=O)O)C(=O)O [Aspartic Acid] | 46.6 ± 32 | 40 ± 30 | 63.6 ± 27 | 29.7 ± 30 | 32.1 ± 28 | 35 ± 23 | – | – | – | – | – | – |
| COC(OC)c1ccccc1 [Benzaldehyde dimethyl acetal] | – | 41.5 ± 31 | – | 68.6 ± 24 | – | 35 ± 24 | 38.7 ± 29 | 29.2 ± 25 | 49.9 ± 24 | – | – | – |
| CC1COC(c2ccccc2)O1 (configuration not stated) [Benzaldehyde propylene glycol acetal] | – | 36.3 ± 27 | – | 50.5 ± 29 | – | 45.5 ± 23 | 34.2 ± 22 | 28.8 ± 32 | 47.2 ± 22 | – | – | – |
| c1ccccc1 [Benzene] | – | 26.1 ± 24 | – | 11.2 ± 14 | – | 51.7 ± 20 | 27.4 ± 25 | 19.8 ± 26 | 39.4 ± 22 | – | – | – |
| Sc1ccccc1 [Benzenethiol] | – | – | – | – | – | – | 45.1 ± 30 | 63.4 ± 34 | 24.6 ± 23 | 31.3 ± 28 | 13 ± 22 | 41.9 ± 24 |
| O=C(O)c1ccccc1 [Benzoic acid] | – | 34.4 ± 25 | – | 30.3 ± 27 | – | 34.9 ± 22 | 38.7 ± 30 | 20.2 ± 24 | 55.5 ± 25 | – | – | – |
| O=C(OCc1ccccc1)c1ccccc1 [Benzyl benzoate] | 38.5 ± 26 | 42.4 ± 31 | 53.3 ± 30 | 19.8 ± 24 | 46.9 ± 24 | 48.6 ± 21 | – | – | – | – | – | – |
| c1ccc(CSSCc2ccccc2)cc1 [Benzyl disulfide] | 48.2 ± 34 | 49.1 ± 32 | 81.2 ± 20 | 63.6 ± 27 | 24.2 ± 25 | 26.8 ± 22 | – | – | – | – | – | – |
| c1ccc(COCc2ccccc2)cc1 [Benzyl ether] | 63.8 ± 32 | 31 ± 26 | 75.7 ± 24 | 25.2 ± 26 | 67.8 ± 27 | 49.2 ± 23 | – | – | – | – | – | – |
| S=C=NCc1ccccc1 [Benzyl isothiocyanate] | – | 40.9 ± 32 | – | 80.9 ± 20 | – | 15.1 ± 19 | 43.4 ± 26 | 55 ± 30 | 29 ± 23 | – | – | – |
| O=C(Cc1ccccc1)OCc1ccccc1 [Benzyl phenylacetate] | – | 49.8 ± 32 | – | 54.4 ± 30 | – | 31 ± 26 | 37.3 ± 31 | 37.4 ± 35 | 47 ± 20 | – | – | – |
| CCC(=O)OCc1ccccc1 [Benzyl propionate] | – | 50.7 ± 32 | – | 53 ± 30 | – | 67.2 ± 23 | 34.5 ± 24 | 30 ± 32 | 44 ± 28 | – | – | – |
| O=C(OCc1ccccc1)c1ccccc1O [Benzyl salicylate] | 40.7 ± 29 | 38 ± 28 | 48.6 ± 30 | 28.4 ± 28 | 57.6 ± 23 | 53.6 ± 24 | – | – | – | – | – | – |
| c1ccc(-c2ccccc2)cc1 [Biphenyl] | 42.5 ± 33 | 36.2 ± 28 | 77.6 ± 20 | 31.7 ± 26 | 31.3 ± 24 | 51.4 ± 21 | – | – | – | – | – | – |
| CSCSC [Bis(methylthio)methane] | – | – | – | – | – | – | 50.3 ± 34 | 78.7 ± 22 | 25.1 ± 25 | 38.9 ± 31 | 33.8 ± 26 | 45.4 ± 25 |
| CC(=O)OC1CC2CCC1(C)C2(C)C (configuration not stated) [Bornyl acetate] | – | 44.2 ± 29 | – | 36.1 ± 30 | – | 45.2 ± 22 | 28.9 ± 26 | 29.9 ± 28 | 45.7 ± 24 | – | – | – |
| C=CCCCCCCCCC(=O)OCCCC [Butyl 10-undecenoate] | 50 ± 30 | 44.4 ± 32 | 58.1 ± 30 | 31.9 ± 33 | 35.1 ± 27 | 42.2 ± 19 | – | – | – | – | – | – |
| CCCCOC(=O)[C@H](C)O [Butyl (S)-(-)-lactate] | – | 50.4 ± 32 | – | 55.5 ± 29 | – | 50.2 ± 28 | 39.5 ± 25 | 33.6 ± 34 | 48.8 ± 23 | – | – | – |
| CCCCOC(=O)CC [Butyl Propionate] | – | 50.6 ± 30 | – | 62 ± 25 | – | 54.6 ± 26 | 31.9 ± 33 | 18 ± 25 | 46.5 ± 25 | – | – | – |
| CCCCOC=O [Butyl formate] | – | 49.7 ± 29 | – | 51.8 ± 32 | – | 45.4 ± 28 | 29.1 ± 29 | 8.38 ± 15 | 44.1 ± 28 | – | – | – |
| CCCCOC(=O)Cc1ccccc1 [Butyl phenylacetate] | – | 51.6 ± 30 | – | 53.1 ± 31 | – | 47.2 ± 28 | 41.3 ± 32 | 24.8 ± 25 | 45.9 ± 22 | – | – | – |
| CCCCN [Butylamine] | – | – | – | – | – | – | 36 ± 29 | 16.3 ± 22 | 50.8 ± 27 | 32.7 ± 27 | 21.8 ± 24 | 44.4 ± 25 |
